Assay results published in patent publication US20050255537A1, “Method for monitoring treatment with a parathyroid hormone” (priority 1999, published 2005).

Key:
PICP, BSAP, NTX, DPD = assay: Example 4 population pharmacodynamic models of biochemical markers (PICP, BSAP, NTX, DPD); assay type: in vivo, human
Source text: Population pharmacodynamic models were developed individually for total lumber spine BMD, femoral neck BMD, procollagen 1 carboxy-terminal propeptide (PICP), bone specific alkaline phosphate (BSAP), urinary N-telopeptide (NTX), and urinary free deoxypyridinoline (DPD). These treatment-response models characterized change in the pharmacodynamic endpoints and identified significant patient factors influencing response to therapy.
The time course of biochemical marker response to LY333334 dose was extensively evaluated as part of the overall population pharmacodynamic analyses. Pharmacodynamic models were developed for four biochemical markers: PICP and BSAP (biochemical measures of bone formation); NTX and […] (biochemical measures of bone resorption). Patient-specific factors that explained some of the variability of each model were identified and included in the model. As an additional evaluation, the relationship between LY333334 exposure and PICP response was modeled. Finally, the biochemical markers were evaluated as potential indicators of response to therapy by modeling the relationship between a change in the biochemical endpoint after 1 month of treatment and the increase in spine and femoral neck BMD after 21 months of treatment. […] Additional patient-specific factors were identified, which further decreased the variability in this predictive model.
An extensive investigation was undertaken to evaluate the time course of biochemical markers of bone formation (PICP and BSAP) and resorption (NTX and DPD) during LY333334 therapy. The population pharmacodynamic evaluation of these biochemical markers included data from approximately 340 patients randomly assigned to receive LY333334 40 μg/day (n≅170) or LY333334 20 μg/day (n≅170). […] Pharmacodynamic models based on linear, exponential, and spline functions of time were evaluated. […] These models reflect the complex time course of change in the underlying processes of bone formation and bone resorption occurring throughout the skeleton in response to the anabolic action induced by LY333334.

[1] = tested on: BSAP and PICP serum levels, NTX urine levels; assay: Example 3 clinical trial of rhPTH(1-34) vs alendronate: bone markers; assay type: in vivo, human; details: 40 μg/day PTH
Protocol: • Number of Subjects: • rhPTH(1-34): 73 enrolled, 51 finished. • Alendronate (Fosamax®): 73 enrolled, 57 finished. • Diagnosis and Inclusion Criteria: Women aged 65±8 years, postmenopausal for 19±19 years, selected for a baseline spine bone mineral density of 0.8±0.1 and a T value of −2.2. Dosage and Administration: • Test Product (blinded) • rhPTH(1-34): 40 μg/day, given subcutaneously • Reference (Control) Therapy (blinded) • Alendronate (Fosamax®): 10 mg per patient per day • Duration of Treatment: • rhPTH(1-34): 12-18 months, with follow up from time of withdrawal of drug to 18 months of study. • Alendronate: 12-18 months, with follow up from time of withdrawal of drug to 18 months of study. • Criteria for Evaluation: Spine x-ray, serum biological markers (calcium, bone-specific alkaline phosphatase, procollagen I carboxy-terminal propeptide); urine makers (calcium, N-telopeptide, fir deoxypyridinoline); 1,25-dihydroxyvitamin D; bone mineral density spine, hip, wrist, and total body.
Measures of BSAP, PICP, and NTX levels were determined for each patient through the course of therapy generally according to methods described above in Example 1.

[2] = tested on: postmenopausal osteoporotic women; details: GHAC efficacy trial, disclosed in PCT/US99/18961; cited from earlier work
[3] = Post-hoc estimates of AUC from the pharmacokinetic model (systemic exposure); details: human, in vivo, subcutaneous
Source text: In order to explore the relationship between concentration and the effect on spine BMD, a pharmacokinetic/pharmacodynamic model was developed. This relationship was best described by a sigmoid Emax model with AUC50 estimated at 170 pg·hr/mL.

[4] = about 5-6 weeks following termination (18 months)

CC[C@H](C)[C@H](NC(=O)[C@H](CCC(=O)O)NC(=O)[C@H](CO)NC(=O)[C@@H](NC(=O)[C@@H](N)CO)C(C)C)C(=O)N[C@@H](CCC(N)=O)C(=O)N[C@@H](CC(C)C)C(=O)N[C@@H](CCSC)C(=O)N[C@@H](Cc1cnc[nH]1)C(=O)N[C@@H](CC(N)=O)C(=O)N[C@@H](CC(C)C)C(=O)NCC(=O)N[C@@H](CCCCN)C(=O)N[C@@H](Cc1cnc[nH]1)C(=O)N[C@@H](CC(C)C)C(=O)N[C@@H](CC(N)=O)C(=O)N[C@@H](CO)C(=O)N[C@@H](CCSC)C(=O)N[C@@H](CCC(=O)O)C(=O)N[C@@H](CCCN=C(N)N)C(=O)N[C@H](C(=O)N[C@@H](CCC(=O)O)C(=O)N[C@@H](Cc1c[nH]c2ccccc12)C(=O)N[C@@H](CC(C)C)C(=O)N[C@@H](CCCN=C(N)N)C(=O)N[C@@H](CCCCN)C(=O)N[C@@H](CCCCN)C(=O)N[C@@H](CC(C)C)C(=O)N[C@@H](CCC(N)=O)C(=O)N[C@@H](CC(=O)O)C(=O)N[C@H](C(=O)N[C@@H](Cc1cnc[nH]1)C(=O)N[C@@H](CC(N)=O)C(=O)N[C@@H](Cc1ccccc1)C(=O)O)C(C)C)C(C)C [LY333334]
time of BSAP peak response after initiation of treatment (PICP, BSAP, NTX, DPD; 20 and 40 μg/day): 6 months | time of maximum PICP (PICP, BSAP, NTX, DPD; 20 and 40 μg/day): ≤ 1 month | time of peak urinary DPD concentrations after initiation of treatment (PICP, BSAP, NTX, DPD; 20 and 40 μg/day): 6 months | BSAP response in 40 μg/day group greater than 20 μg/day group (PICP, BSAP, NTX, DPD; 40 vs 20 μg/day): 73% | DPD response in 40 μg/day group greater than 20 μg/day group (PICP, BSAP, NTX, DPD; 40 vs 20 μg/day): 83% | NTX response in 40 μg/day group greater than 20 μg/day group (PICP, BSAP, NTX, DPD; 40 vs 20 μg/day): 87% | PICP response in 40 μg/day group greater than 20 μg/day group (PICP, BSAP, NTX, DPD; 40 vs 20 μg/day): 94% | minimum increase in PICP level in the entire study population (PICP, BSAP, NTX, DPD; about 1 month of therapy): at least 20 pM | time of peak urinary NTX excretion (PICP, BSAP, NTX, DPD; last observation while on therapy): 12 months | BSAP level after termination of PTH treatment ([1]; (18 months)): BSAP remained at an elevated level | percent change in PICP serum levels during treatment ([1]; FIG. 8): reached a peak within about one or two months | percent change in NTX urine levels during treatment ([1]; FIG. 9): increased steadily until about 12 months after treatment initiation | NTX levels after termination of PTH treatment [1, 4]: had declined but remained elevated compared to pretreatment levels | PICP levels after termination of PTH treatment [1, 4]: PICP levels were the same pre-treatment levels | incidence of new vertebral and non-vertebral fractures compared to placebo [2]: reduced the incidence of new vertebral fractures and non-vertebral fractures | AUC ([3]; 20 ug): 0.365 ng·h/mL | AUC ([3]; 40 ug): 0.576 ng·h/mL
